Data on six compounds can be found in ChEMBL document CHEMBL4425118, “Potential Treatment for Neuropsychiatry Disorders with TRPC5 Modulators” (ACS Med Chem Lett, 2016).

Assay [1] has as its target T1, Short transient receptor potential channel 5 (Homo sapiens, UniProt Q9UL62).
T1 sequence (Q9UL62 whole entry): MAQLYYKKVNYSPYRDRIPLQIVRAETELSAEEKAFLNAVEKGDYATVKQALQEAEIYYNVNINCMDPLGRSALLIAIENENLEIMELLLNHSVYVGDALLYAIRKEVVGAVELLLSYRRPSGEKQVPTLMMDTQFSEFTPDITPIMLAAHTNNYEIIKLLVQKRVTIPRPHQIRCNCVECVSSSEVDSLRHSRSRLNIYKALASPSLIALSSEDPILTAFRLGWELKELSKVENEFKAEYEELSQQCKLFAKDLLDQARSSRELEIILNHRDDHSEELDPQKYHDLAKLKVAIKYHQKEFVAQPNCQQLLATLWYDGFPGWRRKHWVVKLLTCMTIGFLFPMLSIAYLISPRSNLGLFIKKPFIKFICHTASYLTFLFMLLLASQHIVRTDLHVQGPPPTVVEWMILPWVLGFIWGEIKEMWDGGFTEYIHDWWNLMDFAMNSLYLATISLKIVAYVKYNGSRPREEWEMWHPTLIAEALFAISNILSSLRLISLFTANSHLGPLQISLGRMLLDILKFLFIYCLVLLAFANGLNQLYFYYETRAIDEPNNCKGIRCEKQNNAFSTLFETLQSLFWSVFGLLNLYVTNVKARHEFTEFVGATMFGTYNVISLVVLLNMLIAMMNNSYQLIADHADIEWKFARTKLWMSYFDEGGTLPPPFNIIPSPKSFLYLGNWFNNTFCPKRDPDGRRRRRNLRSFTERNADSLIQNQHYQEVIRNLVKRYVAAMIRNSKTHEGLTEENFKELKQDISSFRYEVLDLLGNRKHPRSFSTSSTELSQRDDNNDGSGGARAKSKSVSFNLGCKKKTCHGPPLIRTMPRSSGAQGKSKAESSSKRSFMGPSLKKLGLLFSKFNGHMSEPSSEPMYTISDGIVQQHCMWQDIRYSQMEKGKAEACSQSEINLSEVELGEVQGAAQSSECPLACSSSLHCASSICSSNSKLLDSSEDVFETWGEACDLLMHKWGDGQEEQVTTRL
As to the kind of experiment: Inhibition of TRPC5 (unknown origin) transfected in HEK293/TREx cells assessed as reduction of rise in intracellular Ca2+ concentration after 60 to 80 mins by Fluo4 cell-based fluorescence assay.

Assay [2] concerns the target T1, Short transient receptor potential channel 5. Description: Inhibition of TRPC5 (unknown origin) transfected in HEK293/TREx cells assessed as blocking of inward/outward currents after 20 to 48 hrs in presence of LaCl3 by patch clamp assay. The class given is cell-based. For orientation: In patch-clamp work, channel activity is measured electrically.

For orientation: IC50 means the concentration at which inhibition is half-maximal.

Structures are written as SMILES.

Take `CC(C)Oc1ccc2c(c1Cc1ccc(F)cc1)c(=O)n(CCCO)c(=O)n2C`: the 50% inhibitory concentration (IC50) in assay [1] stood at 2.64 nM; in assay [2] it was 9 nM. For `Cn1c(=O)n(CCCO)c(=O)c2c(Cc3ccccc3)c(-c3cccc(OC(F)(F)F)c3)ccc21`, the 50% inhibitory concentration (IC50) in assay [2] is 5.3 nM.

Regarding `Cn1c(=O)n(CCCO)c(=O)c2c(Cc3ccccc3)c(Oc3cccc(OC(F)(F)F)c3)ccc21`, the IC50 in assay [1] is 2.69 nM; in assay [2] it was under 1 nM. Turning to `CCCCOc1ccc2c(c1Cc1ccc(F)cc1)c(=O)n(CCCO)c(=O)n2C`, the IC50 in assay [1] and in assay [2] was under 1 nM throughout.

For `COc1ccc2c(c1Cc1ccc(F)cc1)c(=O)n(CCCO)c(=O)n2C`, the results for the IC50 in assay [1] and in assay [2] were over 100 nM and 8.37 nM, respectively. Turning to `COc1ccc2c(c1Cc1ccccc1)c(=O)n(CCCO)c(=O)n2C`, the IC50 in assay [2] worked out at 23.3 nM.
